Data taken from PubChem BioAssay (NCI).
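A five-concentration, 48-hour dose response in 96-well plates underlies each endpoint, interpolated linearly between surrounding concentrations. At the TGI there is no net growth.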

How the values were obtained:
Experiment in all cases: growth of human tumour cells (NCI), 48 h
[1] = test system: MCF7 breast
[2] = test system: SK-OV-3 ovarian
[3] = test system: DU-145 prostate
[4] = test system: 786-0 renal
[5] = test system: UACC-257 melanoma
[6] = test system: MALME-3M melanoma
[7] = test system: HCT-15 colon
[8] = test system: SNB-75 CNS
[9] = test system: OVCAR-8 ovarian
[10] = test system: NCI-H522 lung
[11] = test system: HL-60(TB) leukemia
[12] = test system: LOX IMVI melanoma
[13] = test system: COLO 205 colon
[14] = test system: K-562 leukemia
[15] = test system: MDA-MB-435
[16] = test system: UO-31 renal
[17] = test system: HOP-62 NSCLC
[18] = test system: OVCAR-5 ovarian
[19] = test system: NCI-H460 lung
[20] = test system: HOP-92 NSCLC
[21] = test system: CAKI-1 renal
[22] = test system: OVCAR-3 ovarian
[23] = test system: SK-MEL-2 melanoma
[24] = test system: SF-539 CNS
[25] = test system: SNB-19 CNS
[26] = test system: NCI/ADR-RES ovarian
[27] = test system: ACHN renal
[28] = test system: HCT-116 colon
[29] = test system: RPMI-8226 leukemia
[30] = test system: NCI-H226 lung
[31] = test system: SK-MEL-28 melanoma
[32] = test system: A498 renal
[33] = test system: SF-268 CNS
[34] = test system: A549 NSCLC
[35] = test system: MDA-N
[36] = test system: BT-549 breast
[37] = test system: MOLT-4 leukemia
[38] = test system: EKVX NSCLC
[39] = test system: SR leukemia
[40] = test system: OVCAR-4 ovarian
[41] = test system: TK-10 renal
[42] = test system: SF-295 CNS
[43] = test system: U251 CNS
[44] = test system: MDA-MB-231 breast
[45] = test system: SN12C renal
[46] = test system: M14 melanoma
[47] = test system: PC-3 prostate
[48] = test system: NCI-H23 lung
[49] = test system: T-47D breast
[50] = test system: KM12 colon
[51] = test system: RXF 393 renal
[52] = test system: HT29 colon
[53] = test system: SK-MEL-5 melanoma
[54] = test system: HS 578T breast
[55] = test system: IGROV1 ovarian
[56] = test system: UACC-62 melanoma
[57] = test system: SW-620 colon

For NS(=O)(=O)c1ccc(N=Nc2ncccc2O)cc1, the TGI [1] was > 100 µM, the TGI [2] was > 100 µM and the TGI [3] was > 100 µM. For the same molecule, the TGI [4] was > 100 µM, the TGI [5] was > 100 µM and the TGI [6] was > 100 µM. For the same molecule, the TGI [7] was > 100 µM, the TGI [8] was > 100 µM and the TGI [9] was > 100 µM. The TGI [10] was > 100 µM, the TGI [11] was > 100 µM and the TGI [12] was > 100 µM. The TGI [13] was > 100 µM, the TGI [14] was > 100 µM and the TGI [15] was > 100 µM. For the same molecule, the TGI [16] was > 100 µM, the TGI [17] was > 100 µM and the TGI [18] was > 100 µM. The TGI [19] was > 100 µM, the TGI [20] was > 100 µM and the TGI [21] was > 100 µM. The TGI [22] was > 100 µM, the TGI [23] was > 100 µM and the TGI [24] was > 100 µM. The TGI [25] was > 100 µM, the TGI [26] was > 100 µM and the TGI [27] was > 100 µM. The TGI [28] was > 100 µM, the TGI [29] was > 100 µM and the TGI [30] was > 100 µM. For the same molecule, the TGI [31] was > 100 µM, the TGI [32] was > 100 µM and the TGI [33] was > 100 µM. For the same molecule, the TGI [34] was > 100 µM, the TGI [35] was > 100 µM and the TGI [36] was > 100 µM. For the same molecule, the TGI [37] was 87.8 µM, the TGI [38] was > 100 µM and the TGI [39] was 71.9 µM. The TGI [40] was > 100 µM, the TGI [41] was > 100 µM and the TGI [42] was > 100 µM. The TGI [43] was > 100 µM, the TGI [44] was > 100 µM and the TGI [45] was > 100 µM. The TGI [46] was > 100 µM, the TGI [47] was > 100 µM and the TGI [48] was > 100 µM. For the same molecule, the TGI [49] was > 100 µM, the TGI [50] was > 100 µM and the TGI [51] was > 100 µM. The TGI [52] was > 100 µM, the TGI [53] was > 100 µM and the TGI [54] was > 100 µM. The TGI [55] was > 100 µM, the TGI [56] was > 100 µM and the TGI [57] was > 100 µM.

With Cc1ccc(C2(C)CC/C(=N/N=C3/CCC(C)(c4ccc(C)c(C)c4)c4cc(C)c(C)cc43)c3cc(C)c(C)cc32)cc1C (stereo not drawn) the TGI [1] was > 100 µM, the TGI [2] was > 100 µM and the TGI [3] was > 100 µM. For the same molecule, the TGI [4] was > 100 µM, the TGI [6] was > 100 µM and the TGI [7] was > 100 µM. The TGI [8] was > 100 µM, the TGI [9] was > 100 µM and the TGI [10] was > 100 µM. For the same molecule, the TGI [11] was > 100 µM, the TGI [12] was > 100 µM and the TGI [13] was > 100 µM. For the same molecule, the TGI [14] was > 100 µM, the TGI [15] was > 100 µM and the TGI [16] was > 100 µM. For the same molecule, the TGI [17] was > 100 µM, the TGI [18] was > 100 µM and the TGI [19] was > 100 µM. For the same molecule, the TGI [20] was > 100 µM, the TGI [21] was > 100 µM and the TGI [22] was > 100 µM. The TGI [23] was > 100 µM, the TGI [24] was > 100 µM and the TGI [25] was > 100 µM. For the same molecule, the TGI [26] was > 100 µM, the TGI [27] was > 100 µM and the TGI [28] was > 100 µM. For the same molecule, the TGI [29] was > 100 µM, the TGI [30] was > 100 µM and the TGI [31] was > 100 µM. The TGI [32] was > 100 µM, the TGI [33] was > 100 µM and the TGI [34] was > 100 µM. The TGI [35] was > 100 µM, the TGI [36] was > 100 µM and the TGI [37] was > 100 µM. The TGI [38] was > 100 µM, the TGI [39] was > 100 µM and the TGI [40] was > 100 µM. For the same molecule, the TGI [41] was > 100 µM, the TGI [42] was > 100 µM and the TGI [43] was > 100 µM. The TGI [44] was > 100 µM, the TGI [45] was > 100 µM and the TGI [46] was > 100 µM. For the same molecule, the TGI [47] was > 100 µM, the TGI [48] was > 100 µM and the TGI [49] was > 100 µM. The TGI [50] was > 100 µM, the TGI [51] was > 100 µM and the TGI [52] was > 100 µM. For the same molecule, the TGI [53] was > 100 µM, the TGI [54] was > 100 µM and the TGI [55] was > 100 µM. The TGI [56] was > 100 µM and the TGI [57] was > 100 µM.
